Source: US12509431B2, “1,4-dihydroquinazolinone compounds and uses thereof” (Edgewise Therapeutics, Inc., priority 2022, dated 2025)

Columns and labels:
Assay type in all cases: biochemical
Conditions in all cases: Table 7
Porcine Atria myofibrils = experiment: Myofibril ATPase assay (PK/LDH NADH-coupled), atria myofibrils
Procedure, shortened: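 Porcine atrial myofibril ATPase followed via PK/LDH-coupled NADH depletion, absorbance at 340 nm read every 1.5-2 min over 75 min. Slopes (mAU/min) normalized to vehicle as 100% and fit to a 4-parameter logistic; EC25% derived, plus EC50% for inhibitors.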

[1] = target: T1, Porcine Ventricle myofibrils (left ventricle of Yucatan minipigs) (Sus scrofa, UniProt P79293); experiment: Myofibril ATPase assay (PK/LDH NADH-coupled), ventricle myofibrils
T1 construct: Myofibrils from porcine cardiac muscle was isolated from the left ventricle of Yucatan minipigs; tissue Exemplar Genetics; host or cells: left ventricle of Yucatan minipigs
T1 sequence (P79293 whole entry): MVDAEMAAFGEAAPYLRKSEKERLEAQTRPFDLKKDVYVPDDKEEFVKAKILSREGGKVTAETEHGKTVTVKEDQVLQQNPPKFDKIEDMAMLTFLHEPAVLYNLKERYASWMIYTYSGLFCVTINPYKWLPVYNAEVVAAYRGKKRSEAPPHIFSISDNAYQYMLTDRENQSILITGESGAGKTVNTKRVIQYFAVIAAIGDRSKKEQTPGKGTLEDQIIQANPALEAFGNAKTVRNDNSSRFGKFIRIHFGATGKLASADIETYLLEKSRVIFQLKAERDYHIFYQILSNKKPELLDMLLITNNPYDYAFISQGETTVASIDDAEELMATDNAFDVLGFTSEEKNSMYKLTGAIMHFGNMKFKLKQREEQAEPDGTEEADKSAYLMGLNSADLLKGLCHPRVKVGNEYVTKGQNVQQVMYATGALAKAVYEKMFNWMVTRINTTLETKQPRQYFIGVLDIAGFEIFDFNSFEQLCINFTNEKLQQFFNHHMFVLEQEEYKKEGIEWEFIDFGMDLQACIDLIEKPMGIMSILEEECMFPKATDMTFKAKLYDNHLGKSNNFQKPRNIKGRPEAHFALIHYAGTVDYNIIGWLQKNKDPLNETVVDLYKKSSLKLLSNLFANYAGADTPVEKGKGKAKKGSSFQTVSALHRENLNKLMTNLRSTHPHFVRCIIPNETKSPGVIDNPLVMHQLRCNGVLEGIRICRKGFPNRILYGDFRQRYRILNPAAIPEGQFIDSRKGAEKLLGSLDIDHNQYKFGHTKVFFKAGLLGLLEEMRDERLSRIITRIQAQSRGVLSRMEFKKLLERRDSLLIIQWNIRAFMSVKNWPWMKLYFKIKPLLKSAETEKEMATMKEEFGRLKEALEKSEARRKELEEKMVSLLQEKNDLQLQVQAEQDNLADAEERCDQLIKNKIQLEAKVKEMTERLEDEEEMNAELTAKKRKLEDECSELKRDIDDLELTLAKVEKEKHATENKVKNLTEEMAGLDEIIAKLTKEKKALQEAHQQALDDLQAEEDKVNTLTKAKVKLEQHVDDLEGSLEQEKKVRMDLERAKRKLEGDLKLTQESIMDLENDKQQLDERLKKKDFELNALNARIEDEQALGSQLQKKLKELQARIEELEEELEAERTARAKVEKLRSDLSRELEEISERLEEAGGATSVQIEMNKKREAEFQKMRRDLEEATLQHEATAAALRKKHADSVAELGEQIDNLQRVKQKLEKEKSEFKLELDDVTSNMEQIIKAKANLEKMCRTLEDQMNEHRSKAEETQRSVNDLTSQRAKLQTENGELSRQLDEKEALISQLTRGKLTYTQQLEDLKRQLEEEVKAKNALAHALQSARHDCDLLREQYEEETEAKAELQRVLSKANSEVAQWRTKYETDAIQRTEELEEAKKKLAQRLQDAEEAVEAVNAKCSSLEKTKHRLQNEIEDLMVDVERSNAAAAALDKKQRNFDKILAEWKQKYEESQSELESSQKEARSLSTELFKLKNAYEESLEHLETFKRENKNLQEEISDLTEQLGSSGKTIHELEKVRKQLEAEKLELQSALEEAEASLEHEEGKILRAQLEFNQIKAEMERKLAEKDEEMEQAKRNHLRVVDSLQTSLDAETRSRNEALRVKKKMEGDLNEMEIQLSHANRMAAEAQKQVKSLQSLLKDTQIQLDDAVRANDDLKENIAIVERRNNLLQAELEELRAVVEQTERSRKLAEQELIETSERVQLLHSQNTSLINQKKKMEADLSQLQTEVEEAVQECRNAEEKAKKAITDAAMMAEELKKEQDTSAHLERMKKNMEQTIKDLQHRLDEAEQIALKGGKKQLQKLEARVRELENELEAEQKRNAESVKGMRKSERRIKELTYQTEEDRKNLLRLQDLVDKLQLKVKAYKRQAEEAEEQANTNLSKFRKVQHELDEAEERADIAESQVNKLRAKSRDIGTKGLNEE
Procedure, shortened: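 Yucatan minipig left-ventricle myofibrils; ATPase measured by PK/LDH-coupled NADH loss at 340 nm, read every 1.5-2 min for 75 min. Slopes normalized to vehicle (100%) and fit to 4-parameter logistic model; EC25 and, for inhibitors, EC50 calculated.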

[2] = tested on: Rabbit Skeletal myofibrils (rabbit psoas muscle); experiment: Myofibril ATPase assay (PK/LDH NADH-coupled), skeletal myofibrils
Procedure, shortened: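 Rabbit psoas myofibrils in pCa (PIPES/CaCl2/EGTA, pH 7.0) buffer; ADP coupled via PK/LDH to NADH loss, read at 340 nm every 1.5–2 min for 75 min. Slopes normalized to vehicle (100%) and fit to 4-parameter logistic for EC25, plus EC50 for inhibitors.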

Row | SMILES | Porcine Atria IC25 (Porcine Atria myofibrils) | Porcine Ventricle IC25 [1] | Rabbit Psoas IC25 [2]
1 | C[C@H](NC(=O)CN1Cc2nc(C#N)ccc2NC1=O)c1ccc(F)cc1F [Compound N60, (S)-2-(6-Cyano-2-oxo-1,4-dihydropyrido[3,2-d]pyrimidin-3(2H)-yl)-N-(1-(2,4-difluorophenyl)ethyl)acetamide] | 1.15 µM | 81.4 µM | 1.385 µM
2 | C[C@@H](NC(=O)CN1Cc2c(ccnc2C#N)NC1=O)c1ncc(F)cc1F [Compound N61] | 100.00 µM | 100 µM | 100 µM
3 | C[C@H](NC(=O)CN1Cc2c(ccnc2C#N)NC1=O)c1ncc(F)cc1F [Compound N62] | 0.97 µM | 5.161 µM | 0.1508 µM
4 | C[C@@H](NC(=O)CN1Cc2c(F)cncc2NC1=O)c1ncc(F)cc1F [Compound N63] | 100.00 µM | 100 µM | 100 µM
5 | C[C@H](NC(=O)CN1Cc2c(F)cncc2NC1=O)c1ncc(F)cc1F [Compound N64] | 25.37 µM | 100 µM | 16.71 µM
6 | CC(NC(=O)CN1Cc2c(ccnc2C(N)=O)NC1=O)c1ncc(F)cc1F (stereo not drawn) [Compound N65] | 100.00 µM | 100 µM | 100 µM
7 | C[C@H](NC(=O)CN1Cc2c(ccnc2OC2COC2)NC1=O)c1ccc(F)cc1F [Compound N66] | 29.35 µM | 100 µM | 0.3112 µM
8 | COc1ccc2c(n1)C1(CC1)N(CC(=O)N[C@H](C)c1ncc(F)cc1F)C(=O)N2 [Compound N67] | 100.00 µM | 100 µM | 100 µM
9 | COc1ccc2c(n1)C1(CC1)N(CC(=O)N[C@@H](C)c1ncc(F)cc1F)C(=O)N2 [Compound N68] | 0.13 µM | 1.833 µM | 0.0442 µM
10 | C[C@@H](NC(=O)CN1Cc2cc(F)cnc2NC1=O)c1ncc(F)cc1F [Compound N69] | 100.00 µM | 100 µM | 100 µM
11 | C[C@H](NC(=O)CN1Cc2cc(F)cnc2NC1=O)c1ncc(F)cc1F [Compound N70] | 100.00 µM | 100 µM | 100 µM
12 | C[C@H](NC(=O)CN1Cc2cc(F)cnc2NC1=O)c1ccc(F)cc1F [Compound N71, N-[(1S)-1-(2,4-Difluorophenyl)ethyl]-2-{6-fluoro-2-oxo-1H,4H-pyrido[2,3-d]pyrimidin-3-yl}acetamide] | 36.26 µM | 100 µM | 2.804 µM
13 | C[C@H](NC(=O)CN1Cc2c(F)cncc2NC1=O)c1ccc(F)cc1F [Compound N72, N-[(1S)-1-(2,4-Difluorophenyl)ethyl]-2-{5-fluoro-2-oxo-1H,4H-pyrido[3,4-d]pyrimidin-3-yl}acetamide] | 3.14 µM | 39.96 µM | 0.4483 µM
14 | C[C@@H](NC(=O)CN1Cc2c(ccnc2C(F)(F)F)NC1=O)c1ccc(C#N)cc1F [Compound N73] | 100.00 µM | 100 µM | 35.6 µM
15 | C[C@H](NC(=O)CN1Cc2c(ccnc2C(F)(F)F)NC1=O)c1ccc(C#N)cc1F [Compound N74] | 0.54 µM | 1.559 µM | 0.07565 µM
16 | C[C@@H](NC(=O)CN1Cc2cc(Cl)cnc2NC1=O)c1ncc(F)cc1F [Compound N75] | 100.00 µM | 100 µM | 100 µM
17 | C[C@H](NC(=O)CN1Cc2cc(Cl)cnc2NC1=O)c1ncc(F)cc1F [Compound N76] | 100.00 µM | 100 µM | 100 µM

Row | SMILES | Porcine Atria IC25 (Porcine Atria myofibrils) | Porcine Ventricle IC25 [1] | Rabbit Psoas IC25 [2]
18 | C[C@H](NC(=O)CN1C(=O)Nc2cccnc2[C@H]1C)c1ccc(F)cc1F [Compound N77, N—((S)-1-(2,4-difluorophenyl)ethyl)-2-((R)-4-methyl-2-oxo-1,4-dihydropyrido[3,2-d]pyrimidin-3(2H)-yl)acetamide] | 2.11 µM | 24.08 µM | 2.441 µM
19 | C[C@H](NC(=O)CN1C(=O)Nc2cccnc2[C@@H]1C)c1ccc(F)cc1F [Compound N78, N—((S)-1-(2,4-difluorophenyl)ethyl)-2-((S)-4-methyl-2-oxo-1,4-dihydropyrido [3,2-d]pyrimidin-3(2H)-yl)acetamide] | 26.68 µM | 31.94 µM | 11.14 µM
20 | C[C@@H](NC(=O)CN1Cc2c(ccnc2C(F)(F)F)NC1=O)c1ncc(F)cc1F [Compound N79] | 100.00 µM | 100 µM | 100 µM
21 | C[C@H](NC(=O)CN1Cc2c(ccnc2C(F)(F)F)NC1=O)c1ncc(F)cc1F [Compound N80] | 8.03 µM | 100 µM | 4.79 µM
22 | C[C@H](NC(=O)CN1Cc2c(ccnc2C#N)NC1=O)c1ccc(F)cc1F [Compound N81] | 0.24 µM | 0.545 µM | 0.04549 µM
23 | C[C@H](NC(=O)CN1Cc2cc(Cl)cnc2NC1=O)c1ccc(F)cc1F [Compound N82] | 100.00 µM | 100 µM | 100 µM
24 | C[C@H](NC(=O)[C@H](C)N1Cc2ncccc2NC1=O)c1ccc(F)cc1F [Compound N83] | 0.74 µM | 100 µM | 1.802 µM
25 | C[C@H](NC(=O)[C@@H](C)N1Cc2ncccc2NC1=O)c1ccc(F)cc1F [Compound N84] | 3.69 µM | 100 µM | 10.25 µM
26 | C[C@H](NC(=O)CN1C(=O)Nc2ccncc2[C@H]1C)c1ccc(F)cc1F [Compound N85] | 18.87 µM | 100 µM | 4.254 µM
27 | C[C@H](NC(=O)CN1C(=O)Nc2ccncc2[C@@H]1C)c1ccc(F)cc1F [Compound N86] | 30.96 µM | 100 µM | 10.83 µM
28 | COc1ccc2c(n1)C1(CC1)N(CC(=O)N[C@@H](C)c1ccc(F)cc1F)C(=O)N2 [Compound N87, N-[(1S)-1-(2,4-Difluorophenyl)ethyl]-2-{6′-methoxy-2′-oxo-1′H-spiro[cyclopropane-1,4′-pyrido[3,2-d]pyrimidin]-3′-yl}acetamide] | 0.03 µM | 0.1682 µM | 0.0571 µM
29 | C[C@H](NC(=O)CN1C(=O)Nc2cccnc2C12CC2)c1ccc(F)cc1F [Compound N88] | 0.13 µM | 0.7484 µM | 0.1726 µM
30 | CC(C)C[C@@H](C(=O)N[C@@H](C)c1ccc(F)cc1F)N1Cc2nc(F)ccc2NC1=O [Compound N89] | 100.00 µM | 100 µM | 100 µM
31 | CC(C)C[C@H](C(=O)N[C@@H](C)c1ccc(F)cc1F)N1Cc2nc(F)ccc2NC1=O [Compound N90] | 100.00 µM | 100 µM | 49.64 µM
32 | Cc1ncc2c(n1)CN(CC(=O)N[C@@H](C)c1ccc(F)cc1F)C(=O)N2 [Compound N91] | 56.88 µM | 100 µM | 17.09 µM
33 | C[C@H](NC(=O)[C@H](C)N1Cc2nc(F)ccc2NC1=O)c1ccccc1F [Compound N92] | 100.00 µM | 100 µM | 100 µM
34 | C[C@H](NC(=O)[C@@H](C)N1Cc2nc(F)ccc2NC1=O)c1ccccc1F [Compound N93] | 1.66 µM | 100 µM | 100 µM
